# Measured values reported in US9597407B2, “Targeted antimicrobial moieties” (C3 Jian, Inc., priority 2009, dated 2017).
# “Also recorded” adds a separate entry of the source. Ends that are not written are not given here.
# Columns and labels:
# microorganisms [1] = assay: Peptide activities: binding, antimicrobial, growth or phenotype altering (Table 8)
# Excerpt: In certain embodiments, peptides described herein can have multiple activities. Thus for example, a peptide can have both binding/targeting activity and antimicrobial activity. Such peptides can be used, e.g., in a chimeric construct, for any or all of these properties. Thus, for example, a peptide designated “B” in Table 8 can be used as a targeting peptide. If it is also designated G or M it can also be used for antimicrobial activity.
# microorganisms [2] = assay: Morphology, biofilm and growth disruption by peptides (Table 5); assay type: cell-based; set-up: key: A: Peptide aggregates; B: Less hyphal formation; Clumps; Diffuse clumps and small polyps; F: Diffuse growth; H: Thin; I: Growth inhibition; Microcolony formation; Rippled; Small polyps; Thick; W: Halo formation on top, microlonies on bottom
# Excerpt: In certain embodiments peptides that induce alterations in phenotype or other biological activities can also be used as antimicrobial effector moieties.
# bacteria = assay: Binding of targeting peptides to microorganisms (Table 3); details: preferably 1x PBS; for Target(s) (microorganism bound by the targeting peptide) / Target(s) (microorganisms bound by the targeting peptide): peptide binding in aqueous buffers that varied depending on peptide solubility; for Target(s): microorganism bound by the targeting peptide, binding in aqueous buffers chosen by peptide solubility
substance,measurement,setting,value
AL C SVIKAIEL GIINVHL Q [PF-366],Activities,microorganisms [1],G B
same,"Organism, effect",microorganisms [2]; C. jejuni,C. jejuni (D)
same,"Organism, effect",microorganisms [2]; E. coli,E. coli (C)
same,"Organism, effect",microorganisms [2]; E. faecalis,E. faecalis (C)
same,"Organism, effect",microorganisms [2]; MRSA,MRSA (D)
same,"Organism, effect",microorganisms [2]; P. aeruginosa,P. aeruginosa (A)
same,"Organism, effect",microorganisms [2]; S. epidermidis,S. epidermidis (R)
same,"Organism, effect",microorganisms [2]; S. pneumoniae,S. pneumoniae (C)
PF-012 (WRGPNTEAGGKSANNIVQVGGAPT; Peptide with targeting and/or antimicrobial activity),Activities,microorganisms [1],G B
same,"Organism, effect",microorganisms [2]; C. jeikeium,C. jeikeium (A)
same,"Organism, effect",microorganisms [2]; M. luteus,M. luteus (C)
same,"Organism, effect",microorganisms [2]; MRSA,MRSA (R)
same,"Organism, effect",microorganisms [2]; S. epidermidis,S. epidermidis (S)
PF-022 (MINELKNKNSGIMNNYVVTKESKL; Peptide with targeting and/or antimicrobial activity),Activities,microorganisms [1],G B
same,"Organism, effect",microorganisms [2]; C. jeikeium,C. jeikeium (A)
same,"Organism, effect",microorganisms [2]; M. luteus,M. luteus (A)
same,"Organism, effect",microorganisms [2]; MRSA,MRSA (R)
same,"Organism, effect",microorganisms [2]; S. epidermidis,S. epidermidis (D)
PF-030 (MTCHQAPTTTHQSNMA; Peptide with targeting and/or antimicrobial activity),Activities,microorganisms [1],G B
same,"Organism, effect",microorganisms [2]; C. jeikeium,C. jeikeium (C)
same,"Organism, effect",microorganisms [2]; M. luteus,M. luteus (C)
same,"Organism, effect",microorganisms [2]; MRSA,MRSA (R)
same,"Organism, effect",microorganisms [2]; S. epidermidis,S. epidermidis (D)
PF-042 (LLLSYFRYTGALLQSLF; Peptide with targeting and/or antimicrobial activity),Activities,microorganisms [1],G B
same,"Organism, effect",microorganisms [2]; C. jeikeium,C. jeikeium (S)
same,"Organism, effect",microorganisms [2]; M. luteus,M. luteus (C)
same,"Organism, effect",microorganisms [2]; MRSA,MRSA (R)
same,"Organism, effect",microorganisms [2]; S. epidermidis,S. epidermidis (D)
PF-056 (AEQLFGKQKQRGVDLFLNRLTIILSILFFVLMICISYLGM; Peptide with targeting and/or antimicrobial activity),Activities,microorganisms [1],G B
same,"Organism, effect",microorganisms [2]; B. subtilis,B. subtilis (C)
same,"Organism, effect",microorganisms [2]; C. albicans,C. albicans (B)
same,"Organism, effect",microorganisms [2]; C. jeikeium,C. jeikeium (S)
same,"Organism, effect",microorganisms [2]; C. jejuni,C. jejuni (D)
same,"Organism, effect",microorganisms [2]; M. luteus,M. luteus (D)
same,"Organism, effect",microorganisms [2]; MRSA,MRSA (M)
same,"Organism, effect",microorganisms [2]; S. epidermidis,S. epidermidis (D)
same,"Organism, effect",microorganisms [2]; S. pneumoniae,S. pneumoniae (D)
PF-057 (TMIVISIPRFEEYMKARHKKWM; Peptide with targeting and/or antimicrobial activity),Activities,microorganisms [1],G B
same,"Organism, effect",microorganisms [2]; C. albicans,C. albicans (A)
same,"Organism, effect",microorganisms [2]; C. jeikeium,C. jeikeium (A)
same,"Organism, effect",microorganisms [2]; C. jejuni,C. jejuni (D)
same,"Organism, effect",microorganisms [2]; E. coli,E. coli (M)
same,"Organism, effect",microorganisms [2]; E. faecalis,E. faecalis (A)
same,"Organism, effect",microorganisms [2]; M. luteus,M. luteus (C)
same,"Organism, effect",microorganisms [2]; MRSA,MRSA (M)
same,"Organism, effect",microorganisms [2]; S. epidermidis,S. epidermidis (D)
same,"Organism, effect",microorganisms [2]; S. pneumoniae,S. pneumoniae (R)
PF-063 (IAAIIVLVLFQKGLLQIFNWILIQLQ; Peptide with targeting and/or antimicrobial activity),Activities,microorganisms [1],G B
same,"Organism, effect",microorganisms [2]; B. subtilis,B. subtilis (C)
same,"Organism, effect",microorganisms [2]; C. jeikeium,C. jeikeium (D)
same,"Organism, effect",microorganisms [2]; C. jejuni,C. jejuni (D)
same,"Organism, effect",microorganisms [2]; M. luteus,M. luteus (R)
same,"Organism, effect",microorganisms [2]; MRSA,MRSA (M)
same,"Organism, effect",microorganisms [2]; P. aeruginosa,P. aeruginosa (A)
same,"Organism, effect",microorganisms [2]; S. epidermidis,S. epidermidis (R)
same,"Organism, effect",microorganisms [2]; S. pneumoniae,S. pneumoniae (D)
PF-C137 (QRMYWFKRGFETGDFSAGDTFAELK; Peptide with targeting and/or antimicrobial activity),Target(s) (microorganism bound by the targeting peptide),bacteria,A. naeslundii; also recorded: F. nucleatum; also recorded: P. gingivalis; also recorded: S. mutans
same,"Organism, effect (morphology, biofilm and growth disruption)",microorganisms [2]; F. nucleatum,F. nucleatum (T)
PF-C139 (LLASHPERLSLGVFFVYRVLHLLLENT; Peptide with targeting and/or antimicrobial activity),Target(s) (microorganism bound by the targeting peptide),bacteria,A. naeslundii; also recorded: F. nucleatum; also recorded: P. gingivalis; also recorded: S. mutans; also recorded: T. denticola
same,"Organism, effect (morphology, biofilm and growth disruption)",microorganisms [2]; S. mutans,S. mutans (F)
PF-C142 (DFPPLSFFRRRFHAYTAPIDNFFGANPF; Peptide with targeting and/or antimicrobial activity),Target(s) (microorganism bound by the targeting peptide),bacteria,A. naeslundii; also recorded: F. nucleatum; also recorded: P. gingivalis; also recorded: S. mutans; also recorded: T. denticola
same,"Organism, effect (morphology, biofilm and growth disruption)",microorganisms [2]; S. mutans,S. mutans (I)
PF-C143 (VVFGGGDRLV; Peptide with targeting and/or antimicrobial activity),Target(s) (microorganism bound by the targeting peptide),bacteria,A. naeslundii; also recorded: F. nucleatum; also recorded: P. gingivalis; also recorded: S. mutans; also recorded: T. denticola
same,"Organism, effect (morphology, biofilm and growth disruption)",microorganisms [2]; F. nucleatum,F. nucleatum (C)
PF-C145 (YGKESDP; Peptide with targeting and/or antimicrobial activity),Target(s) (microorganism bound by the targeting peptide),bacteria,A. naeslundii; also recorded: F. nucleatum; also recorded: P. gingivalis; also recorded: S. mutans; also recorded: T. denticola
same,"Organism, effect (morphology, biofilm and growth disruption)",microorganisms [2]; F. nucleatum,F. nucleatum (C)
same,"Organism, effect (morphology, biofilm and growth disruption)",microorganisms [2]; S. mutans,S. mutans (I)
PF-C180 (TVEELDKAFTWGAAAALAIGVIAINVGLAAGYCYNNNDVF; Peptide with targeting and/or antimicrobial activity),Target(s) (microorganism bound by the targeting peptide),bacteria,F. nucleatum; also recorded: P. gingivalis; also recorded: S. mutans; also recorded: T. denticola
same,"Organism, effect (morphology, biofilm and growth disruption)",microorganisms [2]; P. gingivalis,P. gingivalis (R)
same,"Organism, effect (morphology, biofilm and growth disruption)",microorganisms [2]; S. mutans,S. mutans (S)
PF-C181 (KMRAGQVVFIYKLILVLLFYVLQKLFDLKKGCF; Peptide with targeting and/or antimicrobial activity),Target(s) (microorganism bound by the targeting peptide),bacteria,P. gingivalis
same,"Organism, effect (morphology, biofilm and growth disruption)",microorganisms [2]; F. nucleatum,F. nucleatum (T)
PF-C291 (HPFLTGTGCPLFLIFRLFFVKAYFSFTVF; Peptide with targeting and/or antimicrobial activity),Target(s) (microorganism bound by the targeting peptide),bacteria,A. naeslundii; also recorded: F. nucleatum; also recorded: P. gingivalis; also recorded: S. mutans
same,"Organism, effect (morphology, biofilm and growth disruption)",microorganisms [2]; F. nucleatum,F. nucleatum (T)
same,"Organism, effect (morphology, biofilm and growth disruption)",microorganisms [2]; S. mutans,S. mutans (F)
RESKLIAMADMIRRRI-NH2 [PF-545],Target(s) (microorganisms bound by the targeting peptide),bacteria,S. epidermidis; also recorded: E. coli; also recorded: P. aeruginosa; also recorded: S. pneumoniae; also recorded: E. faecalis; also recorded: C. jeikeium
same,"Organism, effect (morphology, biofilm and growth disruption)",microorganisms [2]; B. subtilis,B. subtilis (I)
same,"Organism, effect (morphology, biofilm and growth disruption)",microorganisms [2]; C. albicans,C. albicans (B)
same,"Organism, effect (morphology, biofilm and growth disruption)",microorganisms [2]; C. jeikeium,C. jeikeium (H)
same,"Organism, effect (morphology, biofilm and growth disruption)",microorganisms [2]; E. faecalis,E. faecalis (H)
SFMPEIQKNTIPTQMK [PF-512],Target(s) (microorganisms bound by the targeting peptide),bacteria,S. pneumoniae; also recorded: C. jeikeium
same,"Organism, effect (morphology, biofilm and growth disruption)",microorganisms [2]; S. pneumoniae,S. pneumoniae (H)
SIGSMIGMYSFRHKTKHIKFTFGIPFILFLQFLLVYFYILK [PF-319],Target(s),bacteria,S. epidermidis; also recorded: B. subtilis; also recorded: C. difficile
same,"Organism, effect",microorganisms [2]; B. subtilis,B. subtilis (C)
same,"Organism, effect",microorganisms [2]; S. epidermidis,S. epidermidis (C)
SLQSQLGPCLHDQRH [PF-448],Target(s) (microorganisms bound by the targeting peptide),bacteria,S. epidermidis; also recorded: M. luteus; also recorded: P. mirabilis; also recorded: E. coli; also recorded: S. pneumoniae; also recorded: E. faecalis; also recorded: C. jeikeium; also recorded: C. jejuni
same,"Organism, effect (morphology, biofilm and growth disruption)",microorganisms [2]; S. pneumoniae,S. pneumoniae (I)
VLPFPAIPLSRRRACVAAPRPRSRQRAS [PF-168],Target(s),bacteria,S. epidermidis and M. luteus and E. coli and C. albicans and MRSA and C. jeikeium and C. jejuni
same,"Organism, effect",microorganisms [2]; MRSA,MRSA (I)
same,"Organism, effect",microorganisms [2]; P. aeruginosa,P. aeruginosa (H)
VMQSLYVKPPLILVTKLAQQN [PF-511],Target(s) (microorganisms bound by the targeting peptide),bacteria,E. coli; also recorded: P. aeruginosa; also recorded: S. pneumoniae; also recorded: C. jeikeium
same,"Organism, effect (morphology, biofilm and growth disruption)",microorganisms [2]; S. pneumoniae,S. pneumoniae (H)
VWENRKKYLENEIERHNVFLKLGQEVIKGLNALASRGR [PF-257],Target(s),bacteria,S. epidermidis
same,"Organism, effect",microorganisms [2]; M. luteus,M. luteus (R)
WSRVPGHSDTGWKVWHRW-NH2 [PF-547],Target(s) (microorganisms bound by the targeting peptide),bacteria,S. epidermidis and E. coli and P. aeruginosa and C. albicans and MRSA and S. pneumoniae and E. faecalis
same,"Organism, effect (morphology, biofilm and growth disruption)",microorganisms [2]; B. subtilis,B. subtilis (I)
same,"Organism, effect (morphology, biofilm and growth disruption)",microorganisms [2]; E. faecalis,E. faecalis (R)
same,"Organism, effect (morphology, biofilm and growth disruption)",microorganisms [2]; MRSA,MRSA (M)
same,"Organism, effect (morphology, biofilm and growth disruption)",microorganisms [2]; S. epidermidis,S. epidermidis (R)
